{"source": "patent US20050085552A1", "about": "“Method for providing long-lasting pain relief through intrathecal administration of civamide” (Winston Laboratories, Inc., priority 2003, published 2005)", "key": {"[1]": {"type": "physicochemical", "description": "Civamide in amounts of 1 Φg, 5 Φg, 10 Φg, 50 Φg, and 100 Φg was dispersed in both 10 Φl and 20 Φl of each of the following: 100% dimethylsulfoxide (DMSO), normal saline (0.9% w/v sodium chloride) with 10% DMSO as suspending agent, normal saline with 0.5% DMSO and 10% cyclodextrin, 10% cyclodextrin and 10% DMSO as suspending agent, and normal saline with 10% cyclodextrin suspending agent, and normal saline with 25% DMSO. In each case, the saline was 0.9% USP."}, "male Sprague-Dawley rats [2]": {"test_system": "male Sprague-Dawley rats", "assay": "Tail flick, hot plate (49° C., 52° C.) and paw pressure pain models after intrathecal administration", "type": "in vivo, rat", "conditions": "1-100 Φg in 10 or 20 Φl, evaluated seven days later, paw pressure", "method": "Civamide and capsaicin were each separately administered intrathecally, in dosages of 1 Φg, 5 Φg, 10 Φg, 50 Φg, or 100 Φg in either 10 Φl or 20 Φl of 0.9% USP saline with 25% DMSO suspending agent, 0.9% USP saline and 10% cyclodextrin, and 0.9% USP saline with 0.5% DMSO and 10% cyclodextrin, to male Sprague-Dawley rats into whom intrathecal catheters had been inserted. Seven days later, tail flick, hot plate (49° C., 52° C.) and paw pressure pain models were evaluated."}, "male Sprague-Dawley rats [3]": {"test_system": "male Sprague-Dawley rats", "assay": "Pain models after a single intrathecal dose: thermal escape, formalin and thermal injury evoked hyperalgesia, tactile allodynia in the Chung model of neuropathy", "type": "in vivo, rat", "conditions": "single intrathecal dose of 10, 25 or 50 Φg/10 Φl saline with 20% or 25% DMSO", "method": "Civamide 10 Φg/10 Φl saline, 25Φg/10 Φl saline, and 50 Φg/10 Φl saline and saline itself were administered intrathecally to male Sprague-Dawley rats. Each of the civamide compositions also included either 20% DMSO or 25% DMSO as a suspending agent. The saline used was 0.9% USP. Eighteen hours, 7 days, 14 days and 28 days after administration of a single intrathecal dose of either civamide or saline, models for various types of pain were evaluated. These included models for acute nociceptive processing (i.e. thermal escape), post tissue injury hyperpathic states (i.e. formalin and thermal injury evoked hyperalgesia) and nerve injury induced hyperpathia (i.e. tactile allodynia in the Chung model of neuropathy)."}, "neurons": {"test_system": "neurons", "assay": "Neurotoxicity of civamide (applicant's discovery, no method given)"}, "[4]": {"conditions": "compositions containing civamide, per U.S. Pat. No. 5,063,060; cited from earlier work"}}}
{"smiles": "COc1cc(CNC(=O)CCCC/C=C\\C(C)C)ccc1O", "note": "[Civamide, cis-8-methyl-N-vanillyl-6-nonenamide]", "values": [{"measurement": "physical and chemical stability of compositions", "setting": "[1]", "value": "physically and chemically stable"}, {"measurement": "effectiveness versus intrathecally administered capsaicin in pain models", "setting": "male Sprague-Dawley rats [2]", "value": "more effective than intrathecally administered capsaicin"}, {"measurement": "effectiveness versus saline in pain models", "setting": "male Sprague-Dawley rats [2]", "value": "significantly more effective than saline"}, {"measurement": "duration of the effects of a single dose", "setting": "male Sprague-Dawley rats [3]", "value": "at least 28 days"}, {"measurement": "time after administration by which effective pain amelioration was produced", "setting": "male Sprague-Dawley rats [3]", "value": "≤ 18", "unit": "h"}, {"measurement": "neurotoxicity", "setting": "neurons", "value": "no significant neurotoxicity"}, {"measurement": "efficacy compared with compositions containing capsaicin", "setting": "[4]", "value": "comparable in efficacy"}, {"measurement": "local adverse effects compared with capsaicin", "setting": "[4]", "value": "significantly less local adverse effects"}]}
